# Laboratory results taken from US20220251141A1, “IMMUNOMODULATORS” (Bristol-Myers Squibb Company, priority 2019, published 2022).
# pIC50: −log10 of the molar value. Structures can show the parent of a compound that is named as a salt. Numbered stars: 1 amine (or outer) side, 2 acyl side, 3 side chain; on linkers, the order of the positions; unused ones are H or OH. Bridge positions count the residues as written; N and C are the ends. Square brackets hold non-standard residues; d marks the D form. Side chains are listed from the residue outwards. Peptide text beside a SMILES is read from it. * marks the point of attachment. X6 = CC(C)C[C@H](N[*:1])C(=O)C1C[C@H](O)C[C@H]1C(=O)[*:2]; Trp(1-CH2CO2Me) = COC(=O)Cn1cc(C[C@H](N)C(=O)O)c2ccccc21; Trp(1-CH2COOH) = N[C@@H](Cc1cn(CC(=O)O)c2ccccc12)C(=O)O; NHCH2CH2Ph(3,4-OCH2O) = c1cc2c(cc1CCN*)OCO2; Phe(4-F) = N[C@@H](Cc1ccc(F)cc1)C(=O)O; Dab(CONH2) = NC(=O)NCC[C@H](N)C(=O)O; Hyp = O=C(O)[C@@H]1C[C@@H](O)CN1; NHcycloheptyl = C1CCCC(N*)CC1; NMeNle = CCCC[C@H](NC)C(=O)O; Pen = CC(C)(S)[C@H](N)C(=O)O; NMeC = CN[C@@H](CS)C(=O)O; Pip = O=C(O)[C@@H]1CCCCN1; NMeA = CN[C@@H](C)C(=O)O; X7 = COc1ccc(CN*)c(OC)c1; Dab = NCC[C@H](N)C(=O)O; Dap = NC[C@H](N)C(=O)O; NH(heptyl) = CCCCCCCN*; Boc = CC(C)(C)OC(=O)*; CO = O=C([*:1])[*:2]; Piv = CC(C)(C)C(=O)*; Tfa = O=C(C(F)(F)F)*
# Molecular target: T1, PD-1/PD-L1 (Homo sapiens, UniProt Q9NZQ7)
# T1 construct: TVMV protease site linker (C); made in house; host or cells: HEK293T cells
# Test: PD-1/PD-L1 Homogenous Time-Resolved Fluorescence (HTRF) binding assay
# Conditions: PD-L1-His 10 nM final, PD-1-Ig 20 nM final; inhibitors pre-incubated with PD-L1-His for 15 m
# Outline: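 Compounds pre-incubated 15 min with human PD-L1(18-239)-His (10 nM final), then PD-1(25-167)-Ig (20 nM final) added for 15 min, in dPBS with 0.1% BSA and 0.05% Tween-20. Eu-cryptate anti-Ig (1 nM) and APC anti-His (20 nM) added, 30 min equilibration, 665/620 nm ratio read; IC50 reported.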
row,Structure (SMILES),pIC50
1,CCCC[C@H]1C(=O)N(C)[C@@H](CCCC)C(=O)N[C@@H](CC(C)C)C(=O)N[C@H](C(=O)NCC(N)=O)CSCC(=O)N[C@@H](Cc2ccc(O)cc2)C(=O)N(C)[C@@H](C)C(=O)N[C@@H](CC(N)=O)C(=O)N2CCC[C@H]2C(=O)N[C@@H](CNC(=O)NCc2ccc(OC)cc2OC)C(=O)N[C@@H](CC(C)C)C(=O)N2C[C@H](O)C[C@H]2C(=O)N[C@@H](Cc2c[nH]c3ccccc23)C(=O)N[C@@H](CCN)C(=O)N[C@@H](Cc2cn(CC(=O)O)c3ccccc23)C(=O)N1C [Example 1043] ({CH2CO}-Y[NMeA]NP[Dap]([CO-X7])L[Hyp]W[Dab][Trp(1-CH2COOH)][NMeNle][NMeNle]LCG-NH2; thioether N-14),8.52
2,CCCC[C@H]1C(=O)N(C)[C@@H](CCCC)C(=O)N[C@@H](CC(C)C)C(=O)N[C@H](C(=O)NCC(N)=O)CSCC(=O)N[C@@H](Cc2ccc(O)cc2)C(=O)N(C)[C@@H](C)C(=O)N[C@@H](CC(N)=O)C(=O)N2CCC[C@H]2C(=O)N[C@@H](CNC(=O)NCc2ccc(OC)cc2OC)C(=O)N[C@@H](CC(C)C)C(=O)N2C[C@H](O)C[C@H]2C(=O)N[C@@H](Cc2c[nH]c3ccccc23)C(=O)N[C@@H](CCNC(=O)NCc2ccc(OC)cc2OC)C(=O)N[C@@H](Cc2cn(CC(=O)O)c3ccccc23)C(=O)N1C [Example 1044] ({CH2CO}-Y[NMeA]NP[Dap]([CO-X7])L[Hyp]W[Dab]([CO-X7])[Trp(1-CH2COOH)][NMeNle][NMeNle]LCG-NH2; thioether N-14),8.59
3,CCCC[C@H]1C(=O)N(C)[C@@H](CCCC)C(=O)N[C@@H](CC(C)C)C(=O)N[C@H](C(=O)NCC(N)=O)CSCC(=O)N[C@@H](Cc2ccc(O)cc2)C(=O)N(C)[C@@H](C)C(=O)N[C@@H](CC(N)=O)C(=O)N2CCC[C@H]2C(=O)N[C@@H](CNC(=O)NC2CCCCCC2)C(=O)N[C@@H](CC(C)C)C(=O)N2C[C@H](O)C[C@H]2C(=O)N[C@@H](Cc2c[nH]c3ccccc23)C(=O)N[C@@H](CCNC(=O)NC2CCCCCC2)C(=O)N[C@@H](Cc2cn(CC(=O)O)c3ccccc23)C(=O)N1C [Example 1045] ({CH2CO}-Y[NMeA]NP[Dap]([CO-NHcycloheptyl])L[Hyp]W[Dab]([CO-NHcycloheptyl])[Trp(1-CH2COOH)][NMeNle][NMeNle]LCG-NH2; thioether N-14),8.34
4,CCCC[C@H]1C(=O)N(C)[C@@H](CCCC)C(=O)N[C@@H](CC(C)C)C(=O)N[C@H](C(=O)NCC(N)=O)CSCC(=O)N[C@@H](Cc2ccc(O)cc2)C(=O)N(C)[C@@H](C)C(=O)N[C@@H](CC(N)=O)C(=O)N2CCC[C@H]2C(=O)N[C@@H](CNC(=O)C(F)(F)F)C(=O)N[C@@H](CC(C)C)C(=O)N2C[C@H](O)C[C@H]2C(=O)N[C@@H](Cc2c[nH]c3ccccc23)C(=O)N[C@@H](CCN)C(=O)N[C@@H](Cc2cn(CC(=O)O)c3ccccc23)C(=O)N1C [Example 1046] ({CH2CO}-Y[NMeA]NP[Dap](Tfa)L[Hyp]W[Dab][Trp(1-CH2COOH)][NMeNle][NMeNle]LCG-NH2; thioether N-14),8.59
5,"CCCC[C@H]1C(=O)N(C)[C@@H](CCCC)C(=O)N[C@@H](CC(C)C)C(=O)N[C@H](C(=O)NCC(N)=O)CSCC(=O)N[C@@H](Cc2ccc(O)cc2)C(=O)N(C)[C@@H](C)C(=O)N[C@@H](CC(N)=O)C(=O)N2CCC[C@H]2C(=O)N[C@@H](CNC(=O)NCCc2ccc3c(c2)OCO3)C(=O)N[C@@H](CC(C)C)C(=O)N2C[C@H](O)C[C@H]2C(=O)N[C@@H](Cc2c[nH]c3ccccc23)C(=O)N[C@@H](CCNC(=O)NCCc2ccc3c(c2)OCO3)C(=O)N[C@@H](Cc2cn(CC(=O)O)c3ccccc23)C(=O)N1C [Example 1048] ({CH2CO}-Y[NMeA]NP[Dap]([CO-NHCH2CH2Ph(3,4-OCH2O)])L[Hyp]W[Dab]([CO-NHCH2CH2Ph(3,4-OCH2O)])[Trp(1-CH2COOH)][NMeNle][NMeNle]LCG-NH2; thioether N-14)",8.96
6,CCCC[C@H]1C(=O)N(C)[C@@H](CCCC)C(=O)N[C@@H](CC(C)C)C(=O)N[C@H](C(=O)NCC(N)=O)CSCC(=O)N[C@@H](Cc2ccc(O)cc2)C(=O)N(C)[C@@H](C)C(=O)N[C@@H](CC(N)=O)C(=O)N2CCC[C@H]2C(=O)N[C@@H](CNC(=O)OC(C)(C)C)C(=O)N[C@@H](CC(C)C)C(=O)C2C[C@H](O)C[C@H]2C(=O)N[C@@H](Cc2c[nH]c3ccccc23)C(=O)N[C@@H](CCNC(N)=O)C(=O)N[C@@H](Cc2cn(CC(=O)OC)c3ccccc23)C(=O)N1C (stereo partly shown) [Example 2001] ({CH2CO}-Y[NMeA]NP[Dap](Boc)[X6]W[Dab(CONH2)][Trp(1-CH2CO2Me)][NMeNle][NMeNle]LCG-NH2; thioether N-13),8.47
7,CCCC[C@H]1C(=O)N(C)[C@@H](CCCC)C(=O)N[C@@H](CC(C)C)C(=O)N[C@H](C(=O)NCC(N)=O)CSCC(=O)N[C@@H](Cc2ccc(O)cc2)C(=O)N(C)[C@@H](C)C(=O)N[C@@H](CC(N)=O)C(=O)N2CCC[C@H]2C(=O)N[C@@H](CNC(=O)OC(C)(C)C)C(=O)N[C@@H](CC(C)C)C(=O)C2C[C@H](O)C[C@H]2C(=O)N[C@@H](Cc2c[nH]c3ccccc23)C(=O)N[C@@H](CCNC(=O)OC(C)(C)C)C(=O)N[C@@H](Cc2cn(CC(=O)OC)c3ccccc23)C(=O)N1C (stereo partly shown) [Example 2002] ({CH2CO}-Y[NMeA]NP[Dap](Boc)[X6]W[Dab](Boc)[Trp(1-CH2CO2Me)][NMeNle][NMeNle]LCG-NH2; thioether N-13),8.92
8,CCCCCCCNC(=O)NCC[C@@H]1NC(=O)[C@H](Cc2c[nH]c3ccccc23)NC(=O)[C@@H]2C[C@@H](O)CN2C(=O)[C@H](CC(C)C)NC(=O)[C@H](CNC(=O)NCCCCCCC)NC(=O)[C@@H]2CCCN2C(=O)[C@H](CC(N)=O)NC(=O)[C@H](C)N(C)C(=O)[C@H](Cc2ccc(O)cc2)NC(=O)CSC[C@@H](C(=O)NCC(N)=O)NC(=O)[C@H](CC(C)C)NC(=O)[C@H](CCCC)N(C)C(=O)[C@H](CCCC)N(C)C(=O)[C@H](Cc2cn(CC(=O)OC)c3ccccc23)NC1=O [Example 2003] ({CH2CO}-Y[NMeA]NP[Dap]([CO-NH(heptyl)])L[Hyp]W[Dab]([CO-NH(heptyl)])[Trp(1-CH2CO2Me)][NMeNle][NMeNle]LCG-NH2; thioether N-14),7.62
9,CCCC[C@H]1C(=O)N(C)[C@@H](CCCC)C(=O)N[C@@H](CC(C)C)C(=O)N(C)[C@H](C(N)=O)CSCC(=O)N[C@@H](Cc2ccc(F)cc2)C(=O)N2CCCC[C@H]2C(=O)N[C@@H](CC(=O)N(C)C)C(=O)N2CCC[C@H]2C(=O)N[C@@H](Cc2c[nH]cn2)C(=O)N[C@@H](CC(C)C)C(=O)N2C[C@H](O)C[C@H]2C(=O)N[C@@H](Cc2c[nH]c3ccccc23)C(=O)N[C@@H](CO)C(=O)N[C@@H](Cc2cn(CC(=O)O)c3ccccc23)C(=O)N1C [Example 10002] ({CH2CO}-[Phe(4-F)][Pip]D(NMe2)PHL[Hyp]WS[Trp(1-CH2COOH)][NMeNle][NMeNle]L[NMeC]-NH2; thioether N-14),7.28
10,CCCC[C@H]1C(=O)N(C)[C@@H](CCCC)C(=O)N[C@@H](CC(C)C)C(=O)N(C)[C@H](C(N)=O)CSCC(=O)N[C@@H](Cc2ccc(F)cc2)C(=O)N2CCCC[C@H]2C(=O)N[C@@H](CC(=O)O)C(=O)N2CCC[C@H]2C(=O)N[C@@H](CN)C(=O)N[C@@H](CC(C)C)C(=O)N2C[C@H](O)C[C@H]2C(=O)N[C@@H](Cc2c[nH]c3ccccc23)C(=O)N[C@@H](CCN)C(=O)N[C@@H](Cc2cn(CC(=O)O)c3ccccc23)C(=O)N1C [Example 10003] ({CH2CO}-[Phe(4-F)][Pip]DP[Dap]L[Hyp]W[Dab][Trp(1-CH2COOH)][NMeNle][NMeNle]L[NMeC]-NH2; thioether N-14),7.92
11,CCCC[C@H]1C(=O)N(C)[C@@H](CCCC)C(=O)N[C@@H](CC(C)C)C(=O)N(C)[C@H](C(N)=O)CSCC(=O)N[C@@H](Cc2ccc(F)cc2)C(=O)N2CCCC[C@H]2C(=O)N[C@@H](CC(=O)O)C(=O)N2CCC[C@H]2C(=O)N[C@@H](Cc2c[nH]cn2)C(=O)N[C@@H](CC(C)C)C(=O)N2C[C@H](O)C[C@H]2C(=O)N[C@@H](Cc2c[nH]c3ccccc23)C(=O)N[C@@H](CO)C(=O)N[C@@H](Cc2cn(CC(=O)O)c3ccccc23)C(=O)N1C [Example 10004] ({CH2CO}-[Phe(4-F)][Pip]DPHL[Hyp]WS[Trp(1-CH2COOH)][NMeNle][NMeNle]L[NMeC]-NH2; thioether N-14),7.96
12,CCCC[C@H]1C(=O)N(C)[C@@H](CCCC)C(=O)N[C@@H](CC(C)C)C(=O)N[C@H](C(N)=O)C(C)(C)SCC(=O)N[C@@H](Cc2ccc(F)cc2)C(=O)N2CCCC[C@H]2C(=O)N[C@@H](CC(N)=O)C(=O)N2CCC[C@H]2C(=O)N[C@@H](CNC(=O)C(C)(C)C)C(=O)N[C@@H](CC(C)C)C(=O)N2C[C@H](O)C[C@H]2C(=O)N[C@@H](Cc2c[nH]c3ccccc23)C(=O)N[C@@H](CCN)C(=O)N[C@@H](Cc2cn(CC(=O)O)c3ccccc23)C(=O)N1C [Example 20010] ({CH2CO}-[Phe(4-F)][Pip]NP[Dap](Piv)L[Hyp]W[Dab][Trp(1-CH2COOH)][NMeNle][NMeNle]L[Pen]-NH2; thioether N-14),8.31
13,CCCC[C@H]1C(=O)N(C)[C@@H](CCCC)C(=O)N[C@@H](CC(C)C)C(=O)N[C@H](C(N)=O)CSCC(=O)N[C@@H](Cc2ccc(F)cc2)C(=O)N2CCCC[C@H]2C(=O)N[C@@H](CC(=O)O)C(=O)N2CCC[C@H]2C(=O)N[C@@H](CNC(=O)OC(C)(C)C)C(=O)N[C@@H](CC(C)C)C(=O)N2C[C@H](O)C[C@H]2C(=O)N[C@@H](Cc2c[nH]c3ccccc23)C(=O)N[C@@H](CCNC(=O)OC(C)(C)C)C(=O)N[C@@H](Cc2cn(CC(=O)O)c3ccccc23)C(=O)N1C [Example 20020] ({CH2CO}-[Phe(4-F)][Pip]DP[Dap](Boc)L[Hyp]W[Dab](Boc)[Trp(1-CH2COOH)][NMeNle][NMeNle]LC-NH2; thioether N-14),8.16
